Biological target: T1, human PTH1 receptor (Homo sapiens, UniProt Q03431)
T1 sequence (Q03431 27-593): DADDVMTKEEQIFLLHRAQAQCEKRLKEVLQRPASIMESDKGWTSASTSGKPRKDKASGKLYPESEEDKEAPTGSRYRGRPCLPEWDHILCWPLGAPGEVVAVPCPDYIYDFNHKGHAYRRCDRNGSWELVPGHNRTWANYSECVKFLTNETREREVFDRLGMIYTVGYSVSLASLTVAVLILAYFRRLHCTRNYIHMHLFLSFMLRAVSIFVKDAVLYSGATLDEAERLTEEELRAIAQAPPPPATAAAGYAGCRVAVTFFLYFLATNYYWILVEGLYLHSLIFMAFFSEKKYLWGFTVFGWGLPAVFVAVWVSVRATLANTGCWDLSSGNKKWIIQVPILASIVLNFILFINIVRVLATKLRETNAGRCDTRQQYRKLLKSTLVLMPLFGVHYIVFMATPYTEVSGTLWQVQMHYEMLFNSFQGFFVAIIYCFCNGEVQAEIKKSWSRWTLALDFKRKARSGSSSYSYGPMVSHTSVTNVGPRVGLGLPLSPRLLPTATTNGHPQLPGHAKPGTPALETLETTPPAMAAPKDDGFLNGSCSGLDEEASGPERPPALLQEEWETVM
Assay: In vitro cAMP signal activity in HKRK-B7 cells (LLC-PK1 cells overexpressing the human PTH1 receptor)
Type: cell-based
Details: HKRK-B7 cells; compound at 1×10^−3 M; cAMP produced as percentage of that produced by hPTH(1-34) at 100 nM

| Compound | cAMP production activity (%) |
| --- | --- |
| CC(=O)NCc1cc(C)c(CCS(=O)(=O)N2CCC3(CC2)N=C(C2CCC(CCC(F)(F)F)CC2)NC3=O)c(C)c1 (stereo not drawn) [Compound 772, N-[3,5-dimethyl-4-(2-{4-oxo-2-[4-(3,3,3-trifluoro-propyl)-cyclohexyl]-1,3,8-triaza-spiro[4.5]dec-1-ene-8-sulfonyl}-ethyl)-benzyl]-acetamide] | 69% |
| CC(=O)NCc1cc(C)c(CCS(=O)(=O)N2CCC3(CC2)N=C(C2CCC(C)CC2)NC3=O)c(C)c1 (stereo not drawn) [Compound 773, N-(3,5-dimethyl-4-{2-[2-(4-methyl-cyclohexyl)-4-oxo-1,3,8-triaza-spiro[4.5]dec-1-ene-8-sulfonyl]-ethyl}-benzyl)-acetamide] | 86% |
| Cc1cc(CN2C(=O)CNC2=O)cc(C)c1CCS(=O)(=O)N1CCC2(CC1)N=C(C1CCC(CCC(F)(F)F)CC1)NC2=O (stereo not drawn) [Compound 774, 3-[3,5-dimethyl-4-(2-{4-oxo-2-[4-(3,3,3-trifluoro-propyl)-cyclohexyl]-1,3,8-triaza-spiro[4.5]dec-1-ene-8-sulfonyl}-ethyl)-benzyl]-imidazolidine-2,4-dione] | 80% |
| Cc1cc(CN2C(=O)NC(C)(C)C2=O)cc(C)c1CCS(=O)(=O)N1CCC2(CC1)N=C(C1CCC(CCC(F)(F)F)CC1)NC2=O (stereo not drawn) [Compound 775, 3-[3,5-dimethyl-4-(2-{4-oxo-2-[4-(3,3,3-trifluoro-propyl)-cyclohexyl]-1,3,8-triaza-spiro[4.5]dec-1-ene-8-sulfonyl}-ethyl)-benzyl]-5,5-dimethyl-imidazolidine-2,4-dione] | 70% |
| Cc1cc(CN2CCCC2=O)cc(C)c1CCS(=O)(=O)N1CCC2(CC1)N=C(C1CCC(CCC(F)(F)F)CC1)NC2=O (stereo not drawn) [Compound 776, 8-{2-[2,6-dimethyl-4-(2-oxo-pyrrolidin-1-ylmethyl)-phenyl]-ethanesulfonyl}-2-[4-(3,3,3-trifluoro-propyl)-cyclohexyl]-1,3,8-triaza-spiro[4.5]dec-1-en-4-one] | 79% |
| Cc1cc(CN2C(=O)CCC2=O)cc(C)c1CCS(=O)(=O)N1CCC2(CC1)N=C(C1CCC(CCC(F)(F)F)CC1)NC2=O (stereo not drawn) [Compound 777, 1-[3,5-dimethyl-4-(2-{4-oxo-2-[4-(3,3,3-trifluoro-propyl)-cyclohexyl]-1,3,8-triaza-spiro[4.5]dec-1-ene-8-sulfonyl}-ethyl)-benzyl]-pyrrolidine-2,5-dione] | 71% |
| Cc1cc(N2C(=O)CNC2=O)c(C)cc1CCS(=O)(=O)N1CCC2(CC1)N=C(C1CCC(C)CC1)NC2=O (stereo not drawn) [Compound 778, 3-(2,5-dimethyl-4-{2-[2-(4-methyl-cyclohexyl)-4-oxo-1,3,8-triaza-spiro[4.5]dec-1-ene-8-sulfonyl]-ethyl}-phenyl)-imidazolidine-2,4-dione] | 57% |
| Cc1cc(CN2C(=O)CNC2=O)cc(C)c1CCS(=O)(=O)N1CCC2(CC1)N=C(C1CCC(C)CC1)NC2=O (stereo not drawn) [Compound 779, 3-(3,5-dimethyl-4-{2-[2-(4-methyl-cyclohexyl)-4-oxo-1,3,8-triaza-spiro[4.5]dec-1-ene-8-sulfonyl]-ethyl}-benzyl)-imidazolidine-2,4-dione] | 53% |
| Cc1cc(CN2C(=O)NC(C)(C)C2=O)cc(C)c1CCS(=O)(=O)N1CCC2(CC1)N=C(C1CCC(C)CC1)NC2=O (stereo not drawn) [Compound 780, 3-(3,5-dimethyl-4-{2-[2-(4-methyl-cyclohexyl)-4-oxo-1,3,8-triaza-spiro[4.5]dec-1-ene-8-sulfonyl]-ethyl}-benzyl)-5,5-dimethyl-imidazolidine-2,4-dione] | 48% |
| Cc1cc(CN2CCCC2=O)cc(C)c1CCS(=O)(=O)N1CCC2(CC1)N=C(C1CCC(C)CC1)NC2=O (stereo not drawn) [Compound 781, 8-{2-[2,6-dimethyl-4-(2-oxo-pyrrolidin-1-ylmethyl)-phenyl]-ethanesulfonyl}-2-(4-methyl-cyclohexyl)-1,3,8-triaza-spiro[4.5]dec-1-en-4-one] | 30% |
| Cc1cc(CN2C(=O)CCC2=O)cc(C)c1CCS(=O)(=O)N1CCC2(CC1)N=C(C1CCC(C)CC1)NC2=O (stereo not drawn) [Compound 782, 1-(3,5-dimethyl-4-{2-[2-(4-methyl-cyclohexyl)-4-oxo-1,3,8-triaza-spiro[4.5]dec-1-ene-8-sulfonyl]-ethyl}-benzyl)-pyrrolidine-2,5-dione] | 14% |
| CC(=O)N(C)c1c(C)cc(CCS(=O)(=O)N2CCC3(CC2)N=C(C2CCC(C)CC2)NC3=O)cc1C (stereo not drawn) [Compound 783, N-(2,6-dimethyl-4-{2-[2-(4-methyl-cyclohexyl)-4-oxo-1,3,8-triaza-spiro[4.5]dec-1-ene-8-sulfonyl]-ethyl}-phenyl)-N-methyl-acetamide] | 50% |
| CC(=O)N(C)Cc1cc(C)c(CCS(=O)(=O)N2CCC3(CC2)N=C(C2CCC(CCC(F)(F)F)CC2)NC3=O)c(C)c1 (stereo not drawn) [Compound 784, N-[3,5-dimethyl-4-(2-{4-oxo-2-[4-(3,3,3-trifluoro-propyl)-cyclohexyl]-1,3,8-triaza-spiro[4.5]dec-1-ene-8-sulfonyl}-ethyl)-benzyl]-N-methyl-acetamide] | 84% |
| CC(=O)N(C)Cc1cc(C)c(CCS(=O)(=O)N2CCC3(CC2)N=C(C2CCC(C)CC2)NC3=O)c(C)c1 (stereo not drawn) [Compound 785, N-(3,5-dimethyl-4-{2-[2-(4-methyl-cyclohexyl)-4-oxo-1,3,8-triaza-spiro[4.5]dec-1-ene-8-sulfonyl]-ethyl}-benzyl)-N-methyl-acetamide] | 92% |
| Cc1cc(N2CCC(=O)NC2=O)cc(C)c1CCS(=O)(=O)N1CCC2(CC1)N=C(C1CCC(C)CC1)NC2=O (stereo not drawn) [Compound 786, 1-(3,5-dimethyl-4-{2-[2-(4-methyl-cyclohexyl)-4-oxo-1,3,8-triaza-spiro[4.5]dec-1-ene-8-sulfonyl]-ethyl}-phenyl)-dihydro-pyrimidine-2,4-dione] | 57% |
| Cc1cc(C(=O)N(C)N(C)C)cc(C)c1CCS(=O)(=O)N1CCC2(CC1)N=C(C1CCC(CCC(F)(F)F)CC1)NC2=O (stereo not drawn) [Compound 787, 3,5-dimethyl-4-(2-{4-oxo-2-[4-(3,3,3-trifluoro-propyl)-cyclohexyl]-1,3,8-triaza-spiro[4.5]dec-1-ene-8-sulfonyl}-ethyl)-benzoic acid trimethylhydrazide] | 81% |

The remaining lines, values ahead:

| cAMP production activity (%) | Compound |
| --- | --- |
| 142% | O=C1NC(CCCCCCCC(F)(F)C(F)(F)F)=NC12CCN(S(=O)(=O)CCc1cccc3c1ccn3C[C@H](O)CO)CC2 [Compound 788, 8-{2-[1-((S)-2,3-dihydroxy-propyl)-1H-indol-4-yl]-ethanesulfonyl}-2-(8,8,9,9,9-pentafluoro-nonyl)-1,3,8-triaza-spiro[4.5]dec-1-en-4-one] |
| 157% | O=C1NC(CCCCCCCCC(F)(F)F)=NC12CCN(S(=O)(=O)CCc1cccc3c1ccn3C[C@H](O)CO)CC2 [Compound 789, 8-{2-[1-((S)-2,3-dihydroxy-propyl)-1H-indol-4-yl]-ethanesulfonyl}-2-(9,9,9-trifluoro-nonyl)-1,3,8-triaza-spiro[4.5]dec-1-en-4-one] |
| 88% | CCCCCCCCCC1=NC2(CCN(S(=O)(=O)CCc3ccc(N4C(=O)CNC4=O)cc3C)CC2)C(=O)N1 [Compound 790, 3-{3-methyl-4-[2-(2-nonyl-4-oxo-1,3,8-triaza-spiro[4.5]dec-1-ene-8-sulfonyl)-ethyl]-phenyl}-imidazolidine-2,4-dione] |
| 6.1% | Cc1cc2c(ccn2C[C@@H](O)CO)c(C)c1CCS(=O)(=O)N1CCC2(CC1)N=C(C1CCC(CCC(F)(F)F)CC1)NC2=O (stereo partly drawn) [Compound 791, 8-{2-[1-((R)-2,3-dihydroxy-propyl)-4,6-dimethyl-1H-indol-5-yl]-ethanesulfonyl}-2-[4-(3,3,3-trifluoro-propyl)-cyclohexyl]-1,3,8-triaza-spiro[4.5]dec-1-en-4-one] |
| 110% | Cc1cc(N2C(=O)CNC2=O)ccc1CCS(=O)(=O)N1CCC2(CC1)N=C(c1cccc(OC(F)(F)F)c1)NC2=O [Compound 792, 3-(3-methyl-4-{2-[4-oxo-2-(3-trifluoromethoxy-phenyl)-1,3,8-triaza-spiro[4.5]dec-1-ene-8-sulfonyl]-ethyl}-phenyl)-imidazolidine-2,4-dione] |
| 124% | Cc1cc(N2CCOCC2=O)ccc1CCS(=O)(=O)N1CCC2(CC1)N=C(c1cccc(OC(F)(F)F)c1)NC2=O [Compound 793, 8-{2-[2-methyl-4-(3-oxo-morpholin-4-yl)-phenyl]-ethanesulfonyl}-2-(3-trifluoromethoxy-phenyl)-1,3,8-triaza-spiro[4.5]dec-1-en-4-one] |
| 76% | CC(=O)N(CCO)c1cc(C)c(CCS(=O)(=O)N2CCC3(CC2)N=C(c2ccc(F)c(C(F)(F)F)c2)NC3=O)c(C)c1 [Compound 794, N-(4-{2-[2-(4-fluoro-3-trifluoromethyl-phenyl)-4-oxo-1,3,8-triaza-spiro[4.5]dec-1-ene-8-sulfonyl]-ethyl}-3,5-dimethyl-phenyl)-N-(2-hydroxy-ethyl)-acetamide] |
| 97% | CCCCCCCCCC1=NC2(CCN(S(=O)(=O)CCc3ccc(N4C(=O)CNC4=O)cc3C(F)(F)F)CC2)C(=O)N1 [Compound 795, 3-{4-[2-(2-nonyl-4-oxo-1,3,8-triaza-spiro[4.5]dec-1-ene-8-sulfonyl)-ethyl]-3-trifluoromethyl-phenyl}-imidazolidine-2,4-dione] |
